Values quoted from earlier work as cited in patent publication US6121280A, “Azabicyclic rotomase inhibitors” (Pfizer Inc., priority 1999, dated 2000).

System: neuronal cell line and culture models
Details: Lyons et al. 1994, Snyder et al. 1995

Compound: C=CC[C@@H]1/C=C(\C)C[C@H](C)C[C@H](OC)[C@H]2O[C@@](O)(C(=O)C(=O)N3CCCC[C@H]3C(=O)O[C@H](/C(C)=C/[C@@H]3CC[C@@H](O)[C@H](OC)C3)[C@H](C)[C@@H](O)CC1=O)[C@H](C)C[C@@H]2OC [FK-506]
- neurite outgrowth in vitro: promoted neurite outgrowth
